Laboratory results taken from ChEMBL document CHEMBL1126714, “Structure, DNA minor groove binding, and base pair specificity of alkyl- and aryl-linked bis(amidinobenzimidazoles) and bis(amidinoindoles)” (J Med Chem, 1993).

Experiments:
Assay type in all cases: nucleic-acid assay
[1] = tested on: Nucleic Acid; assay: Ratio between poly-dAdT and poly-dGdC binding
[2] = tested on: Nucleic Acid; assay: Thermal denaturation in sonicated poly(dA)-poly(dT) homopolymer (AT)
[3] = tested on: Nucleic Acid; assay: Thermal denaturation in alternating poly(dG-dC)-poly(dG-dC) homopolymer (GC)
[4] = tested on: Nucleic Acid; assay: Thermal denaturation in alternating poly(dA-dT)poly(dA-dT) homopolymer (AT)
[5] = tested on: Calf thymus DNA; assay: Thermal denaturation in sonicated calf thymus DNA (CT DNA); conditions: Bos taurus

Structure (SMILES)	Ratio [1]	Tm [2]	Tm [3]	Tm [4]	Tm [5]
N=C(N)c1ccc2[nH]c(CCc3nc4cc(C(=N)N)ccc4[nH]3)nc2c1	4	42.4 °C	4 °C	37.2 °C	18.5 °C
N=C(N)c1ccc(-c2cc3ccc(C(=N)N)cc3[nH]2)cc1	6	38.8 °C	6.9 °C	40.5 °C	21.5 °C
c1cc2[nH]c(CCc3nc4cc(C5=NCCCN5)ccc4[nH]3)nc2cc1C1=NCCCN1	15	45.1 °C	2.7 °C	39.5 °C	19.7 °C
N=C(N)c1ccc2c(ccn2Cc2cccc(Cn3ccc4cc(C(=N)N)ccc43)c2)c1	2.3	8.1 °C	4 °C	9.2 °C	8.1 °C
N=C(N)c1ccc2[nH]c(-c3cccc(-c4nc5cc(C(=N)N)ccc5[nH]4)c3)nc2c1	4	34.6 °C	5.6 °C	23.9 °C	12.8 °C
CNc1ccc2[nH]c(CCc3nc4cc(NC)ccc4[nH]3)nc2c1	4	34.2 °C	3.9 °C	14.1 °C	12.8 °C
c1cc2[nH]c(CCCCc3nc4cc(C5=NCCN5)ccc4[nH]3)nc2cc1C1=NCCN1	6	34.5 °C	4.6 °C	28.9 °C	15.3 °C
CC(C)NC(=N)c1ccc2[nH]c(-c3ccc(-c4nc5cc(C(=N)NC(C)C)ccc5[nH]4)cc3)nc2c1	8	44.3 °C	5.6 °C	45 °C	22.3 °C
N=C(N)c1ccc2c(ccn2CCCCCCn2ccc3cc(C(=N)N)ccc32)c1	2.3	17.7 °C	5.9 °C	13.4 °C	10.5 °C
N=C(N)c1ccc2c(ccn2CCCn2ccc3cc(C(=N)N)ccc32)c1	3.1	19.2 °C	6.5 °C	20.3 °C	13.7 °C
C/C(=C(/C)c1nc2cc(C(=N)N)ccc2[nH]1)c1nc2cc(C(=N)N)ccc2[nH]1	3	17.3 °C	4.6 °C	15.6 °C	14.1 °C
c1ccc2[nH]c(CCc3nc4ccccc4[nH]3)nc2c1		2.1 °C	1 °C	0.1 °C	4.3 °C
c1cc2[nH]c(CCc3nc4cc(C5=NCCN5)ccc4[nH]3)nc2cc1C1=NCCN1		40 °C	3 °C	34.6 °C	18.5 °C
N=C(N)c1ccc2[nH]c(CCCCCCc3nc4cc(C(=N)N)ccc4[nH]3)nc2c1	8	34 °C	3.5 °C	28 °C	13.5 °C
N=C(N)c1ccc2c(ccn2CCCCn2ccc3cc(C(=N)N)ccc32)c1	2.2	18.2 °C	7.3 °C	16.3 °C	12.1 °C
c1c[nH]c(-c2ccc(-c3cc4ccc(-c5ncc[nH]5)cc4[nH]3)cc2)n1	5	45.3 °C	9.4 °C	42.7 °C	22.4 °C
N=C(N)c1ccc2[nH]c(/C=C/c3nc4cc(C(=N)N)ccc4[nH]3)nc2c1	7	46.1 °C	5.8 °C	42.4 °C	21.8 °C
N=C(N)c1ccc2[nH]c(CCCCCCCCc3nc4cc(C(=N)N)ccc4[nH]3)nc2c1	7	22.8 °C	3.2 °C	21.2 °C	10.2 °C
CN1CCN(c2ccc3[nH]c(-c4ccc5[nH]c(-c6ccc(O)cc6)nc5c4)nc3c2)CC1	10	32.4 °C	2.5 °C	24.1 °C	14.1 °C
CC[n+]1c(-c2ccccc2)c2cc(N)ccc2c2ccc(N)cc21	3	9.9 °C	5.3 °C	16.8 °C	12.4 °C

Structure (SMILES)	Ratio [1]	Tm [2]	Tm [3]	Tm [4]	Tm [5]
Cc1cc(-c2nc3cc(C(=N)N)ccc3[nH]2)c(C)cc1-c1nc2cc(C(=N)N)ccc2[nH]1	7	29 °C	3.7 °C	26.5 °C	15.6 °C
CC(C)NC(=N)c1ccc2[nH]c(CCc3nc4cc(C(=N)NC(C)C)ccc4[nH]3)nc2c1	10	37.3 °C	3.3 °C	32.9 °C	19.2 °C
N=C(N)c1ccc2[nH]c(Cc3nc4ccccc4[nH]3)nc2c1		1.3 °C	0.2 °C	1 °C	1.4 °C
Cn1cc(NC(=O)c2cc(NC(=O)CNC(=N)N)cn2C)cc1C(=O)NCCC(=N)N	32	46.6 °C	1.1 °C	35.1 °C	19 °C
N=C(N)c1ccc2c(ccn2CCCCCn2ccc3cc(C(=N)N)ccc32)c1	2.6	15.3 °C	5 °C	12.9 °C	10.2 °C
N=C(N)c1ccc2[nH]c(-c3ccc(-c4nc5cc(C(=N)N)ccc5[nH]4)cc3)nc2c1	7	27.5 °C	3.1 °C	21.7 °C	13.3 °C
c1cc2[nH]c(Cc3nc4cc(C5=NCCN5)ccc4[nH]3)nc2cc1C1=NCCN1	3	13.5 °C	4.1 °C	10.7 °C	6.9 °C
Nc1ccc2nc(CCc3nc4ccc(N)cc4[nH]3)[nH]c2c1		3 °C	2.6 °C	0.6 °C	1.6 °C
OC/C=N\c1ccc2[nH]c(CCc3nc4cc(/N=C/CO)ccc4[nH]3)nc2c1	3	4.5 °C	0.7 °C	1.4 °C	2 °C
c1cc2[nH]c(CCCc3nc4cc(C5=NCCN5)ccc4[nH]3)nc2cc1C1=NCCN1	6	24.8 °C	3.3 °C	20.1 °C	9.9 °C
N=C(N)c1ccc(OCCCCCOc2ccc(C(=N)N)cc2)cc1	6	22.9 °C	3.2 °C	20.2 °C	10.7 °C
N=C(N)c1ccc2[nH]c(CCCc3nc4cc(C(=N)N)ccc4[nH]3)nc2c1	6	30.6 °C	3.3 °C	20.1 °C	10.6 °C
N=C(N)c1ccc2nc(Cc3nc4ccc(C(=N)N)cc4[nH]3)[nH]c2c1	3	9.2 °C	3.5 °C	11.5 °C	7.6 °C
N=C(N)c1ccc2[nH]c(CCCCCc3nc4cc(C(=N)N)ccc4[nH]3)nc2c1	5	24.7 °C	3.3 °C	18.3 °C	10.1 °C
c1cc2[nH]c(CCc3nc4cc(N5CCOCC5)ccc4[nH]3)nc2cc1N1CCOCC1		0.9 °C	-0.3 °C	0.8 °C	0.6 °C
CC(C)NC(=N)c1ccc2[nH]c(/C=C/c3nc4cc(C(=N)NC(C)C)ccc4[nH]3)nc2c1	5	31.6 °C	5.5 °C	22.5 °C	22.8 °C
O=[N+]([O-])c1ccc2[nH]c(CCc3nc4cc([N+](=O)[O-])ccc4[nH]3)nc2c1		0.5 °C	2.6 °C	0.2 °C	1.5 °C
C1=NCCCN1Cc1ccc2[nH]c(CCc3nc4cc(CN5C=NCCC5)ccc4[nH]3)nc2c1	18	30.7 °C	1.6 °C	28.9 °C	13.3 °C
N=C(N)c1ccc2c(ccn2Cc2ccc(Cn3ccc4cc(C(=N)N)ccc43)cc2)c1	2.2	10.8 °C	5.4 °C	11.9 °C	9.3 °C
N=C(N)c1ccc2[nH]c(CCCCc3nc4cc(C(=N)N)ccc4[nH]3)nc2c1	9	33.5 °C	3.3 °C	31.3 °C	15.9 °C
